Results as given in ChEMBL document CHEMBL1909046, “DrugMatrix in vitro pharmacology data”.

What was measured:
[1] = molecular target: T1, C-X-C chemokine receptor type 2 (Homo sapiens, UniProt P25025); format: cell membranes, Membrane; conditions: cho-k1; further: in other assays of this panel Not Active means under 50% inhibition at 10 µM
T1 sequence (P25025 whole entry): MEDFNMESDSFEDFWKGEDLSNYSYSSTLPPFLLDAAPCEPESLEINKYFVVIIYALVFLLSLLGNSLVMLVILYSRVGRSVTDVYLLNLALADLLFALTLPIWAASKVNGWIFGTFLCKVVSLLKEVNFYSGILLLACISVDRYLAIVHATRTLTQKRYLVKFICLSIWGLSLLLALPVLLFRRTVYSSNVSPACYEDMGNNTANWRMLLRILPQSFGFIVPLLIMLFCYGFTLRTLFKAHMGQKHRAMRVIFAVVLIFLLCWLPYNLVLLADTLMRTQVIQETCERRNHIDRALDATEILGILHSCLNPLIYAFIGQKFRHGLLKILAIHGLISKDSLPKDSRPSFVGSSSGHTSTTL

[2] = molecular target: T2, Nitric oxide synthase, inducible (Mus musculus, UniProt P29477); set-up: species or system Escherichia coli;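 further: inhibition of iNOS enzyme activity measured with L-arginine as substrate; in other assays of this panel Not Active means under 50% inhibition at 10 µM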
T2 sequence (P29477 whole entry): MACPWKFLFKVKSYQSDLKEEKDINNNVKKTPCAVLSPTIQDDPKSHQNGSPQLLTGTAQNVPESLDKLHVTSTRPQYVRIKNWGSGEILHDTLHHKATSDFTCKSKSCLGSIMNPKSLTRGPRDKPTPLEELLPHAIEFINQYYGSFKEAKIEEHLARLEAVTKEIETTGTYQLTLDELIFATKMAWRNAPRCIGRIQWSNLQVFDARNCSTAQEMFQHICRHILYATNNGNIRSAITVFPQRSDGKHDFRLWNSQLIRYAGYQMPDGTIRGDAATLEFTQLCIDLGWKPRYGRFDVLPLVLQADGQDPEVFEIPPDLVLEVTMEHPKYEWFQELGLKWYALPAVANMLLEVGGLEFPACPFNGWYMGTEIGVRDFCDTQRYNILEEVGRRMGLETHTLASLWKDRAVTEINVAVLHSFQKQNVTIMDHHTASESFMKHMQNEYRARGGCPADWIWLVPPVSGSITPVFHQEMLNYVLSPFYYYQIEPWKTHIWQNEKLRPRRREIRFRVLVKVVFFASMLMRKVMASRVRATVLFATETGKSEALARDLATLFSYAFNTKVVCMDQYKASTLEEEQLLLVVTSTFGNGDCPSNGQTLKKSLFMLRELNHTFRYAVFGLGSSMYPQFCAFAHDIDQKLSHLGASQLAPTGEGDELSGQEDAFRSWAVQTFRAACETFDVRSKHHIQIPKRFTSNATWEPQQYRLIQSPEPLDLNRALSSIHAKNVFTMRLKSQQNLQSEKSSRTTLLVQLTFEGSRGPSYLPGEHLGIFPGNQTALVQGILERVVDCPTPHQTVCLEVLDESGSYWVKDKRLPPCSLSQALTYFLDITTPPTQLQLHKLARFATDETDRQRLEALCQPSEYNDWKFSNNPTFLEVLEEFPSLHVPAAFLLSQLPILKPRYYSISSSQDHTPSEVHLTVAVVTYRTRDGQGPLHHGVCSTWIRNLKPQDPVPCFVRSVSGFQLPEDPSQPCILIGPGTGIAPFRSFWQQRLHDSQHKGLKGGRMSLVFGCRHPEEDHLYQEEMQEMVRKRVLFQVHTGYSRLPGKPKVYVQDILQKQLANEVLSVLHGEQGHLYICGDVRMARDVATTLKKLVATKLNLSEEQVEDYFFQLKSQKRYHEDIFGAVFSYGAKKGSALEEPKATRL

Glycine receptor = Glycine receptor (Rattus norvegicus, UniProt P22771+P24524+P07727+P20781); format: cell membranes, Wistar, Spinal cord, Membrane; further: in other assays of this panel Not Active means under 50% inhibition at 10 µM
[3] = DRUGMATRIX: Calcium Channel Type L, Dihydropyridine radioligand binding (ligand: [3H] Nitrendipine); format: cell membranes, Rattus norvegicus, Wistar, Cerebral cortex, Membrane; conditions: Not Active = under 50% inhibition at 10 µM
[4] = DRUGMATRIX: Atrial Natriuretic Factor (ANF) radioligand binding (ligand: [125I] ANF (rat)); format: cell membranes, Cavia porcellus, Dunkin-Hartley, Adrenal gland, Membrane; conditions: Not Active = under 50% inhibition at 10 µM
[5] = molecular target: Platelet-activating factor receptor (Homo sapiens, UniProt P25105); format: tissue-based; further: in other assays of this panel Not Active means under 50% inhibition at 10 µM
Sequence of Platelet-activating factor receptor (P25105 whole entry): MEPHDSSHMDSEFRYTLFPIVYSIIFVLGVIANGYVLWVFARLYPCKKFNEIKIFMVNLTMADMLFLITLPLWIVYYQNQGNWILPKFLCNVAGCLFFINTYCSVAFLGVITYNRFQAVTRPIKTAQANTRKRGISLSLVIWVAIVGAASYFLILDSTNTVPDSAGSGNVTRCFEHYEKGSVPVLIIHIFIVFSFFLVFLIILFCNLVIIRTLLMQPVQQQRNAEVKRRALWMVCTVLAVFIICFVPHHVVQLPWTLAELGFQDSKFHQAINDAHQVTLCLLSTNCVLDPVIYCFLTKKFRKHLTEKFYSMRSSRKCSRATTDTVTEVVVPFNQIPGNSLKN

Calcitonin receptor = molecular target: T3, Calcitonin receptor (Homo sapiens, UniProt P30988); format: cell membranes, Membrane; conditions: t47d; further: in other assays of this panel Not Active means under 50% inhibition at 10 µM
T3 sequence (P30988 whole entry): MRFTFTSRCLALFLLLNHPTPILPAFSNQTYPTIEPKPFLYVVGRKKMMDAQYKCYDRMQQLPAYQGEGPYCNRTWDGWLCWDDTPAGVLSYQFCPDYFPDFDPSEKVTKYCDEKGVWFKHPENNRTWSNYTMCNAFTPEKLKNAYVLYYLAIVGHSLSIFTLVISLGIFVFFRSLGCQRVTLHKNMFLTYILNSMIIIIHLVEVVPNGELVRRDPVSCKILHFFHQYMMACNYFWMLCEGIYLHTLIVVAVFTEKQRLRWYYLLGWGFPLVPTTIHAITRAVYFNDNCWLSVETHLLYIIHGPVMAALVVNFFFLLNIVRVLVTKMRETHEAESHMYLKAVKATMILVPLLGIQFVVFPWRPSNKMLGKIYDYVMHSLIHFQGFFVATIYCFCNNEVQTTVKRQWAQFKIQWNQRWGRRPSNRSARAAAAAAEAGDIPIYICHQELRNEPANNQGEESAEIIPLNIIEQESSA

Melanocortin receptor 3 = Melanocortin receptor 3 (Homo sapiens, UniProt P41968); format: cell membranes, Membrane; conditions: hek293; further: in other assays of this panel Not Active means under 50% inhibition at 10 µM
Sequence of Melanocortin receptor 3 (P41968 whole entry): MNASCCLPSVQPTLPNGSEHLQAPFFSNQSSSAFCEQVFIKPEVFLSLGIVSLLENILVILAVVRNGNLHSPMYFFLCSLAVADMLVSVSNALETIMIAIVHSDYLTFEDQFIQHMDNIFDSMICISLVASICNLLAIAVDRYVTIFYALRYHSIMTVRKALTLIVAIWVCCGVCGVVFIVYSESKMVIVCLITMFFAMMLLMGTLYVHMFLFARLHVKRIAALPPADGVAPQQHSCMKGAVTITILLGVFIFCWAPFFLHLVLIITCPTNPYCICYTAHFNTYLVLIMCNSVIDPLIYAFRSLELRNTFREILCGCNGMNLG

Cn1c(=O)c2c(ncn2CC2OCCO2)n(C)c1=O [DOXOFYLLINE]
Not Active: IC50 [1] | IC50 [2] | IC50 (Glycine receptor) | IC50 [3] | Ki [3] | IC50 [4] | Ki [4] | IC50 [5] | IC50 (Calcitonin receptor) | IC50 (Melanocortin receptor 3)

COc1cccc2c1C(=O)c1c(O)c3c(c(O)c1C2=O)C[C@@](O)(C(=O)CO)C[C@@H]3O[C@H]1C[C@H](N)[C@H](O)[C@H](C)O1 [DOXORUBICIN]
Not Active: IC50 [1] | IC50 [2] | IC50 (Glycine receptor) | IC50 [3] | Ki [3] | IC50 [4] | Ki [4] | IC50 [5] | IC50 (Calcitonin receptor) | IC50 (Melanocortin receptor 3)

COc1cccc2c1C(=O)c1c(O)c3c(c(O)c1C2=O)C[C@@](O)(C(=O)CO)C[C@@H]3O[C@H]1C[C@H](N)[C@@H](O)[C@H](C)O1 [EPIRUBICIN]
Not Active: IC50 [1] | IC50 [2] | IC50 (Glycine receptor) | IC50 [3] | Ki [3] | IC50 [4] | Ki [4] | IC50 [5] | IC50 (Calcitonin receptor) | IC50 (Melanocortin receptor 3)

C[C@]12CC[C@@H]3c4ccc(OC(=O)c5ccccc5)cc4CC[C@H]3[C@@H]1CC[C@@H]2O [ESTRADIOL BENZOATE]
Not Active: IC50 [1] | IC50 [2] | IC50 (Glycine receptor) | IC50 [3] | Ki [3] | IC50 [4] | Ki [4] | IC50 [5] | IC50 (Calcitonin receptor) | IC50 (Melanocortin receptor 3)

C[C@]12CC[C@@H]3c4ccc(O)cc4CC[C@H]3[C@@H]1CC[C@@H]2O [ESTRADIOL]
Not Active: IC50 [1] | IC50 [2] | IC50 (Glycine receptor) | IC50 [3] | Ki [3] | IC50 [4] | Ki [4] | IC50 [5] | IC50 (Calcitonin receptor) | IC50 (Melanocortin receptor 3)

CC[C@@H](CO)NCCN[C@@H](CC)CO [ETHAMBUTOL]
Not Active: IC50 [1] | IC50 [2] | IC50 (Glycine receptor) | IC50 [3] | Ki [3] | IC50 [4] | Ki [4] | IC50 [5] | IC50 (Calcitonin receptor) | IC50 (Melanocortin receptor 3)

CC1(C)O[C@@H]2C[C@H]3[C@@H]4C[C@H](F)C5=CC(=O)C=C[C@]5(C)[C@H]4[C@@H](O)C[C@]3(C)[C@]2(C(=O)CO)O1 [FLUNISOLIDE]
Not Active: IC50 [1] | IC50 [2] | IC50 (Glycine receptor) | IC50 [3] | Ki [3] | IC50 [4] | Ki [4] | IC50 [5] | IC50 (Calcitonin receptor) | IC50 (Melanocortin receptor 3)

CC1(C)O[C@@H]2C[C@H]3[C@@H]4C[C@H](F)C5=CC(=O)C=C[C@]5(C)[C@@]4(F)[C@@H](O)C[C@]3(C)[C@]2(C(=O)CO)O1 [FLUOCINOLONE ACETONIDE]
Not Active: IC50 [1] | IC50 [2] | IC50 (Glycine receptor) | IC50 [3] | Ki [3] | IC50 [4] | Ki [4] | IC50 [5] | IC50 (Calcitonin receptor) | IC50 (Melanocortin receptor 3)

CC1(C)O[C@@H]2C[C@H]3[C@@H]4C[C@H](F)C5=CC(=O)CC[C@]5(C)[C@H]4[C@@H](O)C[C@]3(C)[C@]2(C(=O)CO)O1 [FLURANDRENOLIDE]
Not Active: IC50 [1] | IC50 [2] | IC50 (Glycine receptor) | IC50 [3] | Ki [3] | IC50 [4] | Ki [4] | IC50 [5] | IC50 (Calcitonin receptor) | IC50 (Melanocortin receptor 3)
